Measurements as given in patent publication US10189809B2, “SGC stimulators” (Ironwood Pharmaceuticals, Inc., priority 2010, dated 2019).
Where two headings read alike, the source gives them in different places.

Key:
[1] = target: soluble guanylate cyclase (sGC) (Homo sapiens (Human), UniProt Q02108+Q02153); experiment: sGC-HEK-cGMP assay run with SNP incubation (HEK WC assay); type: cell-based
Method in brief: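 HEK293 cells with endogenous sGC were pretreated with 0.5 mM IBMX for 15 min at 37 °C, then exposed to test compound plus sodium nitroprusside for 10 min at 37 °C.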

[2] = target: T1, Human soluble guanylate cyclase enzyme (hsGC) (Homo sapiens (Human), UniProt Q02108+Q02153); experiment: Purified human sGC enzyme activity assay; type: biochemical; details: for sGC Enzyme (specific activity at 30 μM) / sGC Enzyme (fold increase at 30 μM without SNP) / sGC Enzyme (fold increase at 30 μM): 30 μM compound
T1 sequence (Q02153 whole entry): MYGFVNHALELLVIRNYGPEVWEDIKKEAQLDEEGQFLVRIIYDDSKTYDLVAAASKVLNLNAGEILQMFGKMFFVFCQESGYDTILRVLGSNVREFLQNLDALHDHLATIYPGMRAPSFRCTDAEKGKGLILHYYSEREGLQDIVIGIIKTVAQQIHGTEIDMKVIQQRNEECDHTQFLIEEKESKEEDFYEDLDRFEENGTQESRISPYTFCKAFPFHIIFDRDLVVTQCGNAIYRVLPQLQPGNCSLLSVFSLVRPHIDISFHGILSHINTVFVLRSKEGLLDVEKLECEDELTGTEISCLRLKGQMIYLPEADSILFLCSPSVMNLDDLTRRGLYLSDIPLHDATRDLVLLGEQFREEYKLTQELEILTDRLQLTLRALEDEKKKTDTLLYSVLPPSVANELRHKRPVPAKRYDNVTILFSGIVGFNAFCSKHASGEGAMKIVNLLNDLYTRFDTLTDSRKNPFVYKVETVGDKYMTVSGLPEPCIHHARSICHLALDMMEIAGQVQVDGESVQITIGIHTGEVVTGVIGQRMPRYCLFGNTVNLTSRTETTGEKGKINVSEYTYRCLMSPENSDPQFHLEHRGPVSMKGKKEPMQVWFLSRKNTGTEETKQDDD
T1 sequence (Q02108 whole entry): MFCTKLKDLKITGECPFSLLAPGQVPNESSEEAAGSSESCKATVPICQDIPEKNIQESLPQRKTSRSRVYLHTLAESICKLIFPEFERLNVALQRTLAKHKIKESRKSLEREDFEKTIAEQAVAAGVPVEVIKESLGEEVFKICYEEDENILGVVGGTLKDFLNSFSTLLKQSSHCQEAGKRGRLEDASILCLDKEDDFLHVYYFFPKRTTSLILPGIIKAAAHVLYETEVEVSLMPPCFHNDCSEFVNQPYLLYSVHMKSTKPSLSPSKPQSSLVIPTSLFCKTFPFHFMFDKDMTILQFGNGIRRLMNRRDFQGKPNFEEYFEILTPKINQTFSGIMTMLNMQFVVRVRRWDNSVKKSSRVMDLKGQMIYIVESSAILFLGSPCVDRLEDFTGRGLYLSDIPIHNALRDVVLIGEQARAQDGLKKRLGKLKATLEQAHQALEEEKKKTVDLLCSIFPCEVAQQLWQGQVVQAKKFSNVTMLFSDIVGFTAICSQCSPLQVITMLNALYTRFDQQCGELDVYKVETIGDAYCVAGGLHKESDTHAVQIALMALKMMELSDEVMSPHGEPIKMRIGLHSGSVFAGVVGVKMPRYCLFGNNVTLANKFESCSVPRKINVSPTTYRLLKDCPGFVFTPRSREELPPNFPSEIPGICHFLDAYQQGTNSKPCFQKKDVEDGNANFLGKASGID
Method in brief: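 Purified human sGC (5 ng) incubated 30 min at 37° C with compound at 10 or 30 μM final in pH 8.0 Tris with 300 μM GTP, 2 mM MgCl2, 2 mM DTT and 1 mM IBMX, then stopped with cold methanol. cGMP quantified against a standard curve. Specific activity (nmol cGMP/mg sGC/min) expressed as fold-change over DMSO control.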

[3] = target: T1, Human soluble guanylate cyclase enzyme (hsGC); experiment: Purified human sGC enzyme synergy assay in the presence of 1 μM sodium nitroprusside (SNP); type: biochemical; details: for sGC Enzyme (fold increase at 10 μM with SNP): 10 μM compound; for sGC Enzyme (fold increase at 30 μM with SNP): 30 μM compound
Method: Human soluble guanylate cyclase enzyme (hsGC) obtained from Enzo Inc. (P/N: ALX-201-177) was used to evaluate the activity of test compounds. The assay reactions contained 0.1 M Tris (pH 8.0), 0.5 mg/mL BSA (pH 8.0), 2 mM DTT, 2 mM MgCl2, 300 μM GTP, 1 mM 3-isobutyl-1-methylxanthine (IBMX) and 5 ng human soluble guanylate cyclase enzyme. Test compounds in DMSO were then added (2 μL, 10 or 30 μM final concentration) and incubated (200 μL, 96-well plate format) at 37° C. for 30 minutes. The controls were carried out using 2 μL DMSO. After the 30 minute incubation, the reaction was stopped with the addition of 200 μL of cold methanol. The plate was then centrifuged at 3,200 rpm for 10 minutes at room temperature. Supernatants (200 μL) were collected and transferred to a new 96 well plate for analysis.
An 8 point cGMP (Sigma-Aldrich P/N: G6129) standard curve was prepared in assay buffer ranging from 0.156-20 μM. Samples for the cGMP standard curve were then diluted with an equal volume of methanol resulting in final cGMP concentrations of 0.078-10 μM.
The cGMP standard curve was generated using GraphPad Prism Software.
Calculations: Specific Activity was determined by the amount of cGMP formed (nmoles) per mg of sGC per min. Enzyme “fold-change” was calculated by dividing Specific Activity for test compounds by Specific Activity of DMSO controls.
Enzyme assays were performed as described above, but was done in the presence of 1 μM sodium nitroprusside (SNP).

[4] = read-out: HEK WC Assay (% Emax at 10 uM/with 10 uM SNP)
[5] = read-out: HEK WC Assay (% Emax at 30 uM/with 10 uM SNP)
[6] = read-out: HEK WC Assay (% Emax at 10 μM/with 10 uM SNP)
[7] = read-out: HEK WC Assay (% Emax at 30 μM/with 10 uM SNP)

Sequence of soluble guanylate cyclase (sGC) (Q02153 whole entry): as the sequence (Q02153 whole entry) above
Sequence of soluble guanylate cyclase (sGC) (Q02108 whole entry): as the sequence (Q02108 whole entry) above

Row | Structure (SMILES) | Emax at 10 µM [1, 4] | Emax at 30 µM [1, 5] | sGC Enzyme (specific activity at 10 μM) ([2]; 10 μM compound) | sGC Enzyme (fold increase at 10 μM without SNP) ([2]; 10 μM compound) | sGC Enzyme (specific activity at 30 μM) [2] | sGC Enzyme (fold increase at 30 μM without SNP) [2] | sGC Enzyme (fold increase at 10 μM with SNP) ([3]; with 1 μM SNP) | sGC Enzyme (fold increase at 30 μM with SNP) ([3]; with 1 μM SNP) | Emax at 10 µM [1, 6] | Emax at 30 µM [1, 7] | sGC Enzyme (fold increase at 30 μM) ([2]; without the addition of SNP) | sGC Enzyme (fold increase at 30 μM with SNP) ([3]; with the addition of SNP) | sGC Enzyme (fold increase at 10 μM) ([2]; 10 μM compound, without the addition of SNP) | sGC Enzyme (fold increase at 10 μM with SNP) ([3]; with the addition of SNP)
1 | COc1ccc(-c2cc(-c3ncccn3)nn2Cc2ccccc2F)cc1 [Compound I-60] | 0 to 10% | 0 to 10% | B (B = 50 to <100) | A (A = no increase to <2 fold increase) | C (C = 100 to <200) | B (B = 2 to <5 fold increase) | A (A = no increase to <2 fold increase) | A (A = no increase to <2 fold increase) | – | – | – | – | – | –
2 | Fc1ccccc1Cn1nc(-c2ccccn2)c(Br)c1-c1ccccn1 [Compound I-62] | 0 to 10% | 0 to 10% | B (B = 50 to <100) | A (A = no increase to <2 fold increase) | B (B = 50 to <100) | A (A = no increase to <2 fold increase) | A (A = no increase to <2 fold increase) | A (A = no increase to <2 fold increase) | – | – | – | – | – | –
3 | Fc1ccccc1Cn1nc(-c2ccccn2)c(Cl)c1-c1ccccn1 [Compound I-63] | 0 to 10% | 0 to 10% | B (B = 50 to <100) | A (A = no increase to <2 fold increase) | B (B = 50 to <100) | A (A = no increase to <2 fold increase) | A (A = no increase to <2 fold increase) | A (A = no increase to <2 fold increase) | – | – | – | – | – | –
4 | Fc1ccccc1Cn1nc(-c2ccccn2)c(Br)c1C1CCC1 [Compound I-64] | 0 to 10% | 0 to 10% | A (A = 0 to <50) | A (A = no increase to <2 fold increase) | B (B = 50 to <100) | A (A = no increase to <2 fold increase) | A (A = no increase to <2 fold increase) | B (B = 2 to <5 fold increase) | – | – | – | – | – | –
5 | Cc1ccc(-c2cc(-c3ncccn3)nn2Cc2ccccc2F)cc1 [Compound I-65] | 0 to 10% | 0 to 10% | B (B = 50 to <100) | B (B = 2 to <5 fold increase) | C (C = 100 to <200) | B (B = 2 to <5 fold increase) | B (B = 2 to <5 fold increase) | C (C = 5 to <10 fold increase) | – | – | – | – | – | –
6 | Cc1ccc(-c2c(Br)c(-c3ccccn3)nn2Cc2ccccc2F)cc1 [Compound I-67] | 0 to 10% | 0 to 10% | C (C = 100 to <200) | A (A = no increase to <2 fold increase) | D (D = 200 to <500) | A (A = no increase to <2 fold increase) | A (A = no increase to <2 fold increase) | A (A = no increase to <2 fold increase) | – | – | – | – | – | –
7 | Cc1ccc(-c2c(C#N)c(-c3ncccn3)nn2Cc2ccccc2F)cc1 [Compound I-69, 1-(2-fluorobenzyl)-3-(pyrimidin-2-yl)-5-p-tolyl-1H-pyrazole-4-carbonitrile] | 0 to 10% | 0 to 10% | – | A (A = no increase to <2 fold increase) | – | A (A = no increase to <2 fold increase) | A (A = no increase to <2 fold increase) | A (A = no increase to <2 fold increase) | – | – | – | – | – | –
8 | Cc1cccc(-c2cc(-c3ncccn3)nn2Cc2ccccc2F)n1 [Compound I-70, 2-(1-(2-fluorobenzyl)-5-(6-methylpyridin-2-yl)-1H-pyrazol-3-yl)pyrimidine] | – | – | – | – | – | – | – | – | 0 to 10% | 0 to 10% | A (A = no increase to <2 fold increase) | A (A = no increase to <2 fold increase) | – | –
9 | Oc1cccc(-c2cc(-c3ccccn3)nn2Cc2ccccc2F)n1 [Compound I-79, 6-(1-(2-fluorobenzyl)-3-(pyridin-2-yl)-1H-pyrazol-5-yl)pyridin-2-ol] | – | – | – | – | – | – | – | – | 0 to 10% | 0 to 10% | A (A = no increase to <2 fold increase) | A (A = no increase to <2 fold increase) | A (A = no increase to <2 fold increase) | A (A = no increase to <2 fold increase)
10 | Cc1cccc(-c2cc(-c3ncccn3)n(Cc3ccccc3F)n2)n1 [Compound I-81, 2-(1-(2-fluorobenzyl)-3-(6-methylpyridin-2-yl)-1H-pyrazol-5-yl)pyrimidine] | – | – | – | – | – | – | – | – | 0 to 10% | 0 to 10% | A (A = no increase to <2 fold increase) | A (A = no increase to <2 fold increase) | – | –
11 | COC(=O)N(C)c1c(N)nc(-c2cc(-c3ccccn3)n(Cc3ccccc3F)n2)nc1N [Compound I-88] | – | – | – | – | – | – | – | – | 0 to 10% | 0 to 10% | A (A = no increase to <2 fold increase) | A (A = no increase to <2 fold increase) | – | –
12 | COC(=O)Nc1c(N)nc(-c2cc(-c3ccccn3)n(Cc3ccccc3F)n2)nc1N [Compound I-89] | – | – | – | – | – | – | – | – | 0 to 10% | 0 to 10% | A (A = no increase to <2 fold increase) | A (A = no increase to <2 fold increase) | – | –
13 | Fc1ccccc1Cn1nc(-c2ncccn2)cc1C1CC1 [Compound I-90] | – | – | – | – | – | – | – | – | 0 to 10% | 0 to 10% | A (A = no increase to <2 fold increase) | B (B = 2 to <5 fold increase) | – | –
14 | Fc1ccccc1Cn1nc(-c2ncccn2)cc1-c1ccc(Cl)s1 [Compound I-91] | – | – | – | – | – | – | – | – | 0 to 10% | 10 to 20% | B (B = 2 to <5 fold increase) | C (C = 5 to <10 fold increase) | – | –
15 | COC(=O)Nc1c(N)nc(-c2cc(-c3nccs3)n(Cc3ccccc3F)n2)nc1N [Compound I-93] | – | – | – | – | – | – | – | – | 10 to 20% | 20 to 40% | B (B = 2 to <5 fold increase) | C (C = 5 to <10 fold increase) | – | –
16 | CC(=O)Nc1c(N)nc(-c2cc(-c3nccs3)n(Cc3ccccc3F)n2)nc1N [Compound I-94] | – | – | – | – | – | – | – | – | 0 to 10% | 0 to 10% | A (A = no increase to <2 fold increase) | B (B = 2 to <5 fold increase) | – | –
